Assay results published in patent publication US6638912B2, “Peptide compositions mimicking TGF-β activity” (The Regents of the University of California, priority 1995, dated 2003).
Read-outs that look alike come from different tables or passages of the source. Square brackets hold non-standard residues; d marks the D form. Ends that are not written are not given here. NMeA = CN[C@@H](C)C(=O)O; Aib = CC(C)(N)C(=O)O

Tests used:
[1] = system: Mv-1-Lu mink lung epithelial cells; experiment: Inhibition of DNA synthesis (3H-thymidine incorporation) and proliferation of Mv-1-Lu cells; assay type: cell-based; conditions: for % Inhibition of incorporation of 3H-thymidine / 3H-Radioactivity: MV-1 Lu cells; for 3H-Radioactivity: control without peptide 3.57; for Inhibition in comparison to cytomodulin (Inhib by new peptide/Inhib by cytomodulin): 3H-thymidine incorporation, MV-1-Lu cells; for Inhibition of DNA synthesis / proliferation of Mv-1-Lu cells (in words): 10−9 to 10−6 M range; for Bioactivity as agonist (tested as for DNA inhibition): Example 7
Description: The effect of TGF-β and cytomodulin were evaluated by determining the rate of […]thyidine incorporation into total acid-insoluble DNA and cell number. See generally, Sampath et al., Journal of Biological Chemistry, 267, pp. 20352-20362 (1992). DNA synthesis rates were determined in triplicate cultures after 24 hour treatment with various concentrations (10−9 M to 10^−6M) of either TGF-β or cytomodulin (which was synthesized by the Merrifield method) by adding [methyl-^3H]thymidine (2 μCi/ml, 80 Ci/mmol) for 6 hours before the termination of the culture. Incorporation was terminated by aspiration of the medium, and after washing three times with phosphate-buffered saline, the trichloroacetic acid (10%)-precipitated radioactive DNA was extracted with 1.0% (w/v) sodium dodecyl sulfate, 0.1 M NaOH and quantitated by liquid scintillation counting. For cell number determination, 1×10^5 cells were plated in flasks in MEM containing 10% FBS, and after 24 hours, the growth medium was replaced with serum-free medium containing various conceptions of TGF-β and cytomodulin. Triplicate cultures were harvested every 24 hours for the duration of 7 days, and the cell number was determined by counting cells released by trypsin digestion in a fixed volume hemacytometer.
The numbers shown at the various concentration are the ratio of the inhibition rate of the peptide being tested over the inhibition rate of cytomodulin (SEQ ID NO: 1) at the same concentration.
Tests for bioactivity were conducted as described above for DNA inhibition.

[2] = system: NRK-49 F normal rat kidney fibroblasts; conditions: in the absence of EGF and PDGF; from Massagu, J. Biol. Chem. 259 (1984); cited from earlier work
[3] = system: NRK-49 F normal rat kidney fibroblasts; experiment: Growth and colony formation by NRK-49 F fibroblasts in soft agar; assay type: cell-based; conditions: 100 nM, with EGF and PDGF
Description: The original assay for TGF-β, the ability to promote anchorage independent growth of normal fibroblasts is still one of the hallmarks of TGF-β activity. NRK-49 F fibroblasts were grown at 37° C. in DEM supplemented with 10% fetal calf serum. […] To this, either 100 nM TGF-β (positive control) or 100 nM cytomodulin was added. NRK49 F fibroblasts (5×10^4 cells/ml) were mixed with 0.3% agar were plated on the bottom of 35 mm culture dishes. Colony formation was observed starting on day 3 of culture.

Substance	Inhibition in comparison to cytomodulin (Inhib by new peptide/Inhib by cytomodulin) ([1]; 1 nM)	Inhibition in comparison to cytomodulin (Inhib by new peptide/Inhib by cytomodulin) ([1]; 10 nM)	Inhibition in comparison to cytomodulin (Inhib by new peptide/Inhib by cytomodulin) ([1]; 100 nM)	Inhibition in comparison to cytomodulin (Inhib by new peptide/Inhib by cytomodulin) ([1]; 1000 nM)	further results
L-I-(Nme-A)-E-A-K (LI[NMeA]EAK) [SEQ ID NO:5]					% Inhibition of incorporation of 3H-thymidine ([1]; 1 nM peptide): 47%; 3H-Radioactivity ([1]; 1 nM peptide): 1.61 10^3 dpm; % Inhibition of incorporation of 3H-thymidine ([1]; 5 nM peptide): 42%; 3H-Radioactivity ([1]; 5 nM peptide): 1.76 10^3 dpm; % Inhibition of incorporation of 3H-thymidine ([1]; 50 nM peptide): 41%; 3H-Radioactivity ([1]; 50 nM peptide): 1.60 10^3 dpm; % Inhibition of incorporation of 3H-thymidine ([1]; 100 nM peptide): 40%; 3H-Radioactivity ([1]; 100 nM peptide): 1.81 10^3 dpm; % Inhibition of incorporation of 3H-thymidine ([1]; 500 nM peptide): 53%; 3H-Radioactivity ([1]; 500 nM peptide): 1.42 10^3 dpm
L-I-A-G-G-E (LIAGGE; TGF-beta mimic) [SEQ ID NO:13]	1.10	1.33	1.45	1.90	Inhibition of DNA synthesis / proliferation of Mv-1-Lu cells (in words) [1]: inhibits thymidine uptake more than SEQ ID NO: 14
L-I-A-K-G-K (LIAKGK; TGF-beta mimic) [SEQ ID NO:16]		0.65	0.67		
L-I-P-E-A-K (LIPEAK; TGF-beta mimic) [SEQ ID NO:21]					Bioactivity as agonist (tested as for DNA inhibition) [1]: active as an agonist
A-N-V-A-E-K (ANVAEK; TGF-beta mimic) [SEQ ID NO:15]		0.80	1.00		
L-I-A-Q-A-K (LIAQAK; TGF-beta mimic) [SEQ ID NO:12]	0.90	1.10	0.80	1.56	
L-I-A-D-A-K (LIADAK; TGF-beta mimic) [SEQ ID NO:9]	0.45	0.87	1.14	1.25	
L-I-A-N-A-K (LIANAK; TGF-beta mimic) [SEQ ID NO:10]	1.70	2.00	1.43	3.05	Inhibition of DNA synthesis / proliferation of Mv-1-Lu cells (in words) [1]: even more than cytomodulin at every concentration tested
L-I-(Aib)-E-A-K (LI[Aib]EAK) [SEQ ID NO:22]					Bioactivity as agonist (tested as for DNA inhibition) [1]: active as an agonist
TGF-β					Colony formation in soft agar [2]: does not induce colony formation; Colony formation in soft agar [3]: grew colonies
